Measurements from ChEMBL document CHEMBL1121869, “Potential inhibitors of L-asparagine biosynthesis. 5. Electrophilic amide analogues of (S)-2,3-diaminopropionic acid” (J Med Chem, 1981).
Values belong to the molecule of their own block, whether it stands above or below them.

Assays:
[1] = target: T1, Asparagine synthetase [glutamine-hydrolyzing] (Rattus norvegicus) (UniProt P49088); assay: Inhibition of asparagine synthetase from partially purified rat Novikoff hepatoma at a final concentration of 2 mM
T1 sequence (whole entry): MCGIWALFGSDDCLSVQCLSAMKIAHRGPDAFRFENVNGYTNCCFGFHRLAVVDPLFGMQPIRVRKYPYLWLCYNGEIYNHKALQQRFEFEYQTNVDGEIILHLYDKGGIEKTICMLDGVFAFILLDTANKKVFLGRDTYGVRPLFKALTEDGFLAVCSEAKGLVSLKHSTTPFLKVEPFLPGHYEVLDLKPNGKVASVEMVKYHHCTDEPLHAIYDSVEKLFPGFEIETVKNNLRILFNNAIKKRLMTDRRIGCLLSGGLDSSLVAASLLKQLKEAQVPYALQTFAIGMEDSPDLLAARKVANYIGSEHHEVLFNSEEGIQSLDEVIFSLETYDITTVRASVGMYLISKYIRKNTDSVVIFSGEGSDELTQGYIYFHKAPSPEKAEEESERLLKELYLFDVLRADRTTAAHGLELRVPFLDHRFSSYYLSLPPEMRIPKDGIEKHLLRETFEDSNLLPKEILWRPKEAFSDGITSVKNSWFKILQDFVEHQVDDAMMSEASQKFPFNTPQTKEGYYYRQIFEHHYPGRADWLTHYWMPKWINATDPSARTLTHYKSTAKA

[2] = target: T1, Asparagine synthetase [glutamine-hydrolyzing] (Rattus norvegicus); assay: Inhibition of asparagine synthetase from partially purified rat Novikoff hepatoma at a final concentration of 1 mM
TsH1 [3] = assay: Compound was evaluated for the growth inhibition of TsH1 cells in an enriched eagles minimal essential medium, medium lacking aspartic acid and asparagine at a concentration of 0.01 mg/mL (0.03 mM); Medium growth; format: functional, cell-based; conditions: Cricetulus griseus
TsH1 [4] = assay: Compound was evaluated for the growth inhibition of TsH1 cells in an enriched eagles minimal essential medium, medium lacking aspartic acid and asparagine at a concentration of 0.04 mg/mL (0.13 mM); Heavy growth; format: functional, cell-based; conditions: Cricetulus griseus
TsH1 [5] = assay: Compound was evaluated for the growth inhibition of TsH1 cells in an enriched eagles minimal essential medium, medium lacking aspartic acid and asparagine at a concentration of 0.2 mg/mL (0.65 mM); Cells dead; format: functional, cell-based; conditions: Cricetulus griseus
TsH1 [6] = assay: Compound was evaluated for the growth inhibition of TsH1 cells in an enriched eagles minimal essential medium, complete medium at a concentration of 0.01 mg/mL (0.03 mM); Heavy growth; format: functional, cell-based; conditions: Cricetulus griseus
TsH1 [7] = assay: Compound was evaluated for the growth inhibition of TsH1 cells in an enriched eagles minimal essential medium, complete medium at a concentration of 0.04 mg/mL (0.13 mM); Heavy growth; format: functional, cell-based; conditions: Cricetulus griseus
TsH1 [8] = assay: Compound was evaluated for the growth inhibition of TsH1 cells in an enriched eagles minimal essential medium, medium lacking asparagine at a concentration of 1.0 mg/mL (3.27 mM); Cells dead; format: functional, cell-based; conditions: Cricetulus griseus
TsH1 [9] = assay: Compound was evaluated for the growth inhibition of TsH1 cells in an enriched eagles minimal essential medium, medium lacking asparagine at a concentration of 0.01 mg/mL (0.03 mM); Heavy growth; format: functional, cell-based; conditions: Cricetulus griseus
TsH1 [10] = assay: Compound was evaluated for the growth inhibition of TsH1 cells in an enriched eagles minimal essential medium, complete medium at a concentration of 0.2 mg/mL (0.65 mM); Light growth; format: functional, cell-based; conditions: Cricetulus griseus
TsH1 [11] = assay: Compound was evaluated for the growth inhibition of TsH1 cells in an enriched eagles minimal essential medium, medium lacking asparagine at a concentration of 0.04 mg/mL (0.13 mM); Heavy growth; format: functional, cell-based; conditions: Cricetulus griseus
TsH1 [12] = assay: Compound was evaluated for the growth inhibition of TsH1 cells in an enriched eagles minimal essential medium, medium lacking asparagine at a concentration of 0.2 mg/mL (0.65 mM); Cells dead; format: functional, cell-based; conditions: Cricetulus griseus
TsH1 [13] = assay: Compound was evaluated for the growth inhibition of TsH1 cells in an enriched eagles minimal essential medium, medium lacking aspartic acid and asparagine at a concentration of 1.0 mg/mL (3.27 mM); Cells dead; format: functional, cell-based; conditions: Cricetulus griseus
TsH1 [14] = assay: Compound was evaluated for the growth inhibition of TsH1 cells in an enriched eagles minimal essential medium, medium lacking aspartic acid at a concentration of 0.01 mg/mL (0.03 mM); Heavy growth; format: functional, cell-based; conditions: Cricetulus griseus
TsH1 [15] = assay: Compound was evaluated for the growth inhibition of TsH1 cells in an enriched eagles minimal essential medium, medium lacking aspartic acid at a concentration of 0.2 mg/mL (0.65 mM); Light growth; format: functional, cell-based; conditions: Cricetulus griseus
TsH1 [16] = assay: Compound was evaluated for the growth inhibition of TsH1 cells in an enriched eagles minimal essential medium, medium lacking aspartic acid at a concentration of 1.0 mg/mL (3.27 mM); Cells dead; format: functional, cell-based; conditions: Cricetulus griseus
TsH1 [17] = assay: Compound was evaluated for the growth inhibition of TsH1 cells in an enriched eagles minimal essential medium, medium lacking aspartic acid at a concentration of 0.04 mg/mL (0.13 mM); Heavy growth; format: functional, cell-based; conditions: Cricetulus griseus
TsH1 [18] = assay: Compound was evaluated for the growth inhibition of TsH1 cells in an enriched eagles minimal essential medium, complete medium at a concentration of 1.0 mg/mL (3.27 mM); Cells dead; format: functional, cell-based; conditions: Cricetulus griseus
[19] = target: T1, Asparagine synthetase [glutamine-hydrolyzing] (Rattus norvegicus); assay: Inhibition of asparagine synthetase from partially purified rat Novikoff hepatoma at a final concentration of 1 mM with
TsH1 [20] = assay: Compound was evaluated for the growth inhibition of TsH1 cells in an enriched eagles minimal essential medium, medium lacking aspartic acid and asparagine at a concentration of 0.01 mg/mL (0.04 mM); Heavy growth; format: functional, cell-based; conditions: Cricetulus griseus
TsH1 [21] = assay: Compound was evaluated for the growth inhibition of TsH1 cells in an enriched eagles minimal essential medium, medium lacking aspartic acid and asparagine at a concentration of 0.04 mg/mL (0.19 mM); Heavy growth; format: functional, cell-based; conditions: Cricetulus griseus
TsH1 [22] = assay: Compound was evaluated for the growth inhibition of TsH1 cells in an enriched eagles minimal essential medium, complete medium at a concentration of 0.01 mg/mL (0.04 mM); Heavy growth; format: functional, cell-based; conditions: Cricetulus griseus
TsH1 [23] = assay: Compound was evaluated for the growth inhibition of TsH1 cells in an enriched eagles minimal essential medium, complete medium at a concentration of 0.2 mg/mL (0.93 mM); Heavy growth; format: functional, cell-based; conditions: Cricetulus griseus
TsH1 [24] = assay: Compound was evaluated for the growth inhibition of TsH1 cells in an enriched eagles minimal essential medium, medium lacking asparagine at a concentration of 0.2 mg/mL (0.93 mM); Cells dead; format: functional, cell-based; conditions: Cricetulus griseus
TsH1 [25] = assay: Compound was evaluated for the growth inhibition of TsH1 cells in an enriched eagles minimal essential medium, medium lacking asparagine at a concentration of 1.0 mg/mL (4.65 mM); Cells dead; format: functional, cell-based; conditions: Cricetulus griseus
TsH1 [26] = assay: Compound was evaluated for the growth inhibition of TsH1 cells in an enriched eagles minimal essential medium, medium lacking aspartic acid at a concentration of 0.01 mg/mL (0.04 mM); Heavy growth; format: functional, cell-based; conditions: Cricetulus griseus
TsH1 [27] = assay: Compound was evaluated for the growth inhibition of TsH1 cells in an enriched eagles minimal essential medium, medium lacking asparagine at a concentration of 0.01 mg/mL (0.04 mM); Heavy growth; format: functional, cell-based; conditions: Cricetulus griseus
TsH1 [28] = assay: Compound was evaluated for the growth inhibition of TsH1 cells in an enriched eagles minimal essential medium, complete medium at a concentration of 0.04 mg/mL (0.19 mM); Heavy growth; format: functional, cell-based; conditions: Cricetulus griseus
TsH1 [29] = assay: Compound was evaluated for the growth inhibition of TsH1 cells in an enriched eagles minimal essential medium, complete medium at a concentration of 1.0 mg/mL (4.65 mM); Medium growth; format: functional, cell-based; conditions: Cricetulus griseus
TsH1 [30] = assay: Compound was evaluated for the growth inhibition of TsH1 cells in an enriched eagles minimal essential medium, medium lacking aspartic acid and asparagine at a concentration of 0.2 mg/mL (0.93 mM); Cells dead; format: functional, cell-based; conditions: Cricetulus griseus
TsH1 [31] = assay: (§1) Compound was evaluated for the growth inhibition of TsH1 cells in an enriched eagles minimal essential medium, medium lacking asparagine at a concentration of 0.04 mg/mL (0.19 mM); Heavy growth; format: functional, cell-based; conditions: Cricetulus griseus
TsH1 [32] = assay: Compound was evaluated for the growth inhibition of TsH1 cells in an enriched eagles minimal essential medium, medium lacking aspartic acid and asparagine at a concentration of 1.0 mg/mL (4.65 mM); Cells dead; format: functional, cell-based; conditions: Cricetulus griseus
TsH1 [33] = assay: Compound was evaluated for the growth inhibition of TsH1 cells in an enriched eagles minimal essential medium, medium lacking aspartic acid at a concentration of 0.2 mg/mL (0.93 mM); Heavy growth; format: functional, cell-based; conditions: Cricetulus griseus
TsH1 [34] = assay: Compound was evaluated for the growth inhibition of TsH1 cells in an enriched eagles minimal essential medium, medium lacking aspartic acid at a concentration of 1.0 mg/mL (4.65 mM); Medium growth; format: functional, cell-based; conditions: Cricetulus griseus
TsH1 [35] = assay: as §1; format: functional, cell-based; conditions: Cricetulus griseus; remark: listed apart in the source

inhibition [1]: 0%
SMILES: CC(=O)NCC(N)C(=O)O (stereo not given)

SMILES: NC(CNC(=O)CBr)C(=O)O (stereo not given)
inhibition [2]: 93% | Growth inhibition (TsH1 [3]): Medium Growth | Growth inhibition (TsH1 [4]): Heavy Growth | Growth inhibition (TsH1 [5]): Not toxic | Growth inhibition (TsH1 [6]): Heavy Growth | Growth inhibition (TsH1 [7]): Heavy Growth | Growth inhibition (TsH1 [8]): Not toxic | Growth inhibition (TsH1 [9]): Heavy Growth | Growth inhibition (TsH1 [10]): Light growth | Growth inhibition (TsH1 [11]): Heavy Growth | Growth inhibition (TsH1 [12]): Not toxic | Growth inhibition (TsH1 [13]): Not toxic | Growth inhibition (TsH1 [14]): Heavy Growth | Growth inhibition (TsH1 [15]): Light growth | Growth inhibition (TsH1 [16]): Not toxic | Growth inhibition (TsH1 [17]): Heavy Growth | Growth inhibition (TsH1 [18]): Not toxic

SMILES: NC(CNC(=O)C(Cl)Cl)C(=O)O (stereo not given)
inhibition [19]: 18.7% | Growth inhibition (TsH1 [20]): Heavy Growth | Growth inhibition (TsH1 [21]): Heavy Growth | Growth inhibition (TsH1 [22]): Heavy Growth | Growth inhibition (TsH1 [23]): Heavy Growth | Growth inhibition (TsH1 [24]): Not toxic | Growth inhibition (TsH1 [25]): Not toxic | Growth inhibition (TsH1 [26]): Heavy Growth | Growth inhibition (TsH1 [27]): Heavy Growth | Growth inhibition (TsH1 [28]): Heavy Growth | Growth inhibition (TsH1 [29]): Medium Growth | Growth inhibition (TsH1 [30]): Not toxic | Growth inhibition (TsH1 [31]): Heavy Growth | Growth inhibition (TsH1 [32]): Not toxic | Growth inhibition (TsH1 [33]): Heavy Growth | Growth inhibition (TsH1 [34]): Medium Growth | Growth inhibition (TsH1 [35]): Heavy Growth
